Experimental data published in ChEMBL document CHEMBL1201862, “PubChem BioAssay data set” (2004).
Calls of active or inactive are those of the source.

Columns and labels:
[1] = inhibitors of intracellular T. cruzi replication, confirmation, NIH3T3 host cells, beta-gal luminescence (AID 2044); format: functional, cell-based;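 note: intracellular parasites grown in NIH/3T3 mouse fibroblasts as host cells; luminescent beta-galactosidase reporter signal from transgenic T. cruzi replicating inside host cells; inhibitors lower the luminescence signal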
[2] = cytotoxicity toward NIH3T3 fibroblasts, dose response, counter-screen, cell-based, ATP luminescence, mouse fibroblasts (AID 2010); format: functional;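 note: cells exposed to compound for about 90 hours before reading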
[3] = molecular target: T1, DNA repair and recombination protein RAD54-like (Homo sapiens, UniProt Q92698); test: inhibitors of human RAD54 branch migration, confirmation, biochemical, fluorescence, cherry-picked samples, dose series (AID 651657); format: functional
T1 sequence (Q92698 whole entry): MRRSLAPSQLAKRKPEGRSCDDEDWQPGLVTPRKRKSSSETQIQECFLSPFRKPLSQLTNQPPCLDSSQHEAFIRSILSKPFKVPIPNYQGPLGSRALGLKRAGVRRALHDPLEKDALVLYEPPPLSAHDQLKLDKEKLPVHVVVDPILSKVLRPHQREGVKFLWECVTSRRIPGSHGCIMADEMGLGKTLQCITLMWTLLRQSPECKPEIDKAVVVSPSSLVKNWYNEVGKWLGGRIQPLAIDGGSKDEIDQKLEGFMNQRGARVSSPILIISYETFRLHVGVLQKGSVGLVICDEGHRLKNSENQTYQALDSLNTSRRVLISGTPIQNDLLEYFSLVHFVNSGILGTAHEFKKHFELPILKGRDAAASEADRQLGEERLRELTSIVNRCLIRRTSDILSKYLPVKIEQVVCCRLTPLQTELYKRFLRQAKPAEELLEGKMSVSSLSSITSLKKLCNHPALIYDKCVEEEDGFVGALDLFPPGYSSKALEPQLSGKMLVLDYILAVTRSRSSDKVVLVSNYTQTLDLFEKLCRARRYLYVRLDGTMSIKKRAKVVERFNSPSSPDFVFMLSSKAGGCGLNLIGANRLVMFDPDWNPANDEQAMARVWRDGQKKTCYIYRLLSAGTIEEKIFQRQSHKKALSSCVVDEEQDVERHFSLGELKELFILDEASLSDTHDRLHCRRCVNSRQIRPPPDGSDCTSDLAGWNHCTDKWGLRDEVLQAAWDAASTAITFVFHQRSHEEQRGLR

[4] = molecular target: Nuclear receptor subfamily 5 group A member 2 (Homo sapiens, UniProt O00482); format: functional, cell-based;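 note: HEK293T cells transfected with LRH-1 and a StAR promoter luciferase reporter; potency for inhibitors that lower LRH-1 driven reporter light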
Chain of Nuclear receptor subfamily 5 group A member 2 (O00482 whole entry): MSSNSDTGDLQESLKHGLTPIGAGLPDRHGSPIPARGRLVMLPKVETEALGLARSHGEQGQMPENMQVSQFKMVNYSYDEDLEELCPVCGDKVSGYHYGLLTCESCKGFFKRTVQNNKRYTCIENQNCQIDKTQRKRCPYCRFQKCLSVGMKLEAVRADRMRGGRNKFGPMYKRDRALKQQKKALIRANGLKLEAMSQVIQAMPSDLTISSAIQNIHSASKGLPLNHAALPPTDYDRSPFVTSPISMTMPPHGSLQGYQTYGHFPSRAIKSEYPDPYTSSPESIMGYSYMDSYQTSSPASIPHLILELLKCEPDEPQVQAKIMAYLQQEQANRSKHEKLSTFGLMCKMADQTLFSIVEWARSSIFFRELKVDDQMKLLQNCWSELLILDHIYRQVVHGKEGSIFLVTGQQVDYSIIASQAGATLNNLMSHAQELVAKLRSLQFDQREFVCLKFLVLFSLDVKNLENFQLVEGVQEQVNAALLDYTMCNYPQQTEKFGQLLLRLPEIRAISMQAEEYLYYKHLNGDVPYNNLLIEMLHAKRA

Steroidogenic factor 1 = Steroidogenic factor 1 (Homo sapiens, UniProt Q13285); test: Counterscreen for inverse agonists of the liver receptor homolog-1 (LRH-1; NR5A2): Luminescence-based cell-based high throughput dose response assay to identify inverse agonists of the Steroidogenic Factor 1 Nuclear Receptor (SF1; NR5A1).; format: functional
Chain of Steroidogenic factor 1 (Q13285 whole entry): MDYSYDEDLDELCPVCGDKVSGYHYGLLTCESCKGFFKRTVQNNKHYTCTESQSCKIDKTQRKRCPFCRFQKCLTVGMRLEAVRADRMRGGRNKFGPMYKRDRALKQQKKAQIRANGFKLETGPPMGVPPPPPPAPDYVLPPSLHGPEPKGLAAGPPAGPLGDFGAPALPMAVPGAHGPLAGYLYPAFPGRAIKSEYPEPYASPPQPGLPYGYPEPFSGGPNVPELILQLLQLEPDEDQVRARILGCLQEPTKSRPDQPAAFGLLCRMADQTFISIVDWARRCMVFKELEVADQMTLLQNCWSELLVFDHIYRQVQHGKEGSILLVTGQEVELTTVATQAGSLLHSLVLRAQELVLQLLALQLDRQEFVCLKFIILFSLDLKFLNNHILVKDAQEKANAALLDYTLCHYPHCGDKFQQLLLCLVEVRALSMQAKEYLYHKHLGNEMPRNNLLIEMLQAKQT

[5] = StAR promoter reporter inhibition counter-screen, dose response, counter-screen for LRH-1 inverse agonist project, cell-based, luminescence, luciferase reporter (AID 651969); format: functional
[6] = molecular target: T2, DNA repair protein RAD52 homolog (Homo sapiens, UniProt P43351); format: functional, biochemical
T2 sequence (P43351 whole entry): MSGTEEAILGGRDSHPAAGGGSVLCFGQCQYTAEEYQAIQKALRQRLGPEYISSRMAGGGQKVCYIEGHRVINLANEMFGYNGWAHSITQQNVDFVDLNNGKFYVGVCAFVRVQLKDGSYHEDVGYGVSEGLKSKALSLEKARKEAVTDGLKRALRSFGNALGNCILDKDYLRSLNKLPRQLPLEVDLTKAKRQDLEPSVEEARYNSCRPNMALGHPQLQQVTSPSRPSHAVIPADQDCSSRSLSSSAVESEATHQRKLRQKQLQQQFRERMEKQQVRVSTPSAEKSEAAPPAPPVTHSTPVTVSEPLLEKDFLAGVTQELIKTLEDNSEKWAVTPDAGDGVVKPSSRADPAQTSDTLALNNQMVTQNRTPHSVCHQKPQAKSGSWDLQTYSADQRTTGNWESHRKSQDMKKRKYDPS

[7] = miR-122 activators in hepatoma reporter cells, dose response, cell-based, Huh7 psiCHECK-miR122, Renilla luciferase, cherry-picked (AID 651956); format: functional;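 note: huh7 hepatoma cells stably carrying a psiCHECK-2 miR-122 sensor plasmid; renilla luciferase signal reporting endogenous miR-122 activity after 48 h compound exposure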
CAAX prenyl protease 2 [8] = molecular target: T3, CAAX prenyl protease 2 (Saccharomyces cerevisiae S288c, UniProt Q03530); format: biochemical
T3 sequence (Q03530 whole entry): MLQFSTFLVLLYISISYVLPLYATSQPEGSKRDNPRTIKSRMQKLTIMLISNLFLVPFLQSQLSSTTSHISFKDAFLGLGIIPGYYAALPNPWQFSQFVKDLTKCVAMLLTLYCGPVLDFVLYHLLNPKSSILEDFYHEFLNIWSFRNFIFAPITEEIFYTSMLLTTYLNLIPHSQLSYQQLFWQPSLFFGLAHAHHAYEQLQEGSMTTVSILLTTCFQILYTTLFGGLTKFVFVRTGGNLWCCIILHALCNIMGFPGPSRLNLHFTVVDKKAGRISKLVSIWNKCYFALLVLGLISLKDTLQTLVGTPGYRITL

INS1 = test: beta cell apoptosis inhibitors, cytokine rescue, dose response, luminescence, retest (AID 449756); format: functional, cell-based; settings: Rattus norvegicus;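 note: cell death triggered by IL-1 beta plus TNF-alpha plus IFN-gamma mixture; protective hits raise ATP signal compared with cytokine alone wells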
CAAX prenyl protease 2 [9] = molecular target: T4, CAAX prenyl protease 2 (Homo sapiens, UniProt Q9Y256); test: human Rce1 protease inhibitors, dose response, biochemical, yeast membranes, quenched-peptide fluorescence, cherry-pick (AID 588849)
T4 sequence (Q9Y256 whole entry): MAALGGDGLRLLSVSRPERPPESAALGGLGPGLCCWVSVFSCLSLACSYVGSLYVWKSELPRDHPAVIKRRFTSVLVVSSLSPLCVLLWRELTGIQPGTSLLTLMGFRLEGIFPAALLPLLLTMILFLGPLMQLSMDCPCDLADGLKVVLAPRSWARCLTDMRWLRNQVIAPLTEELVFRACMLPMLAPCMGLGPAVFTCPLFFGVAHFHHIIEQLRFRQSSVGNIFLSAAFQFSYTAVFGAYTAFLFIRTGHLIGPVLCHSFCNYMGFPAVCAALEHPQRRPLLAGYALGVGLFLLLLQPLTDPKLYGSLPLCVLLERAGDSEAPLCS

[10] = Shn3 3'UTR reporter inhibitors, dose response, cell-based, Clone20 osteoblasts, firefly luciferase, cherry-picked (AID 624132); format: functional;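 note: firefly luciferase luminescence from reporter carrying the Shn3 3'UTR in osteoblasts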
[11] = HepG2 cell cytotoxicity, dose response, cytotoxicity control for Shn3 inhibitor project, CellTiter-Glo, cherry-picked (AID 624134); format: functional, cell-based
[12] = control 3'UTR Renilla luciferase suppression, dose response, counter-screen for Shn3 inhibitor project, cell-based, Clone20-Shn3RL, cherry-picked (AID 624133); format: functional
Paired box protein Pax-8 = Paired box protein Pax-8 (Homo sapiens, UniProt Q06710); test: inhibitors of PAX8-driven TPO luciferase reporter, dose response, RMG-I cells, cherry-pick (AID 687027); format: functional, cell-based;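 note: luciferase reporter driven by Pax8 target thyroperoxidase promoter measured by SteadyGlo luminescence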
Chain of Paired box protein Pax-8 (Q06710 whole entry): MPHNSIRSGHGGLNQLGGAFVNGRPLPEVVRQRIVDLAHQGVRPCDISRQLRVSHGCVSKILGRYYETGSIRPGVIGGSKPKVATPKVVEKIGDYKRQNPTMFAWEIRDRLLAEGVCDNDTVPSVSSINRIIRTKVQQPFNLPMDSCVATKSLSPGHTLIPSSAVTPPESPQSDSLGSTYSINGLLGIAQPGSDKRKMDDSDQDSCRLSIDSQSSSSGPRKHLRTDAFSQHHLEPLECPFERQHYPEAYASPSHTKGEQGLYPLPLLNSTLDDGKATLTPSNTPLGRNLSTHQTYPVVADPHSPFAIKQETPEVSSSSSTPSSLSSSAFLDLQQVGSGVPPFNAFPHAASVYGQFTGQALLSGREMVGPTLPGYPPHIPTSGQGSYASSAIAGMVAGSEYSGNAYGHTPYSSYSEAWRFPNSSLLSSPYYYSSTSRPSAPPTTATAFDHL

[13] = HeLa cell cytotoxicity, dose response, cytotoxicity control for MgcRacGAP inhibitor project (AID 624300); format: functional
[14] = molecular target: T5, Rac GTPase-activating protein 1 (Homo sapiens, UniProt Q9H0H5); test: MgcRacGAP GTPase-activating activity inhibitors, confirmation, biochemical, ADP Hunter fluorescence, primary and confirmatory (AID 624330); format: functional
T5 sequence (Q9H0H5 whole entry): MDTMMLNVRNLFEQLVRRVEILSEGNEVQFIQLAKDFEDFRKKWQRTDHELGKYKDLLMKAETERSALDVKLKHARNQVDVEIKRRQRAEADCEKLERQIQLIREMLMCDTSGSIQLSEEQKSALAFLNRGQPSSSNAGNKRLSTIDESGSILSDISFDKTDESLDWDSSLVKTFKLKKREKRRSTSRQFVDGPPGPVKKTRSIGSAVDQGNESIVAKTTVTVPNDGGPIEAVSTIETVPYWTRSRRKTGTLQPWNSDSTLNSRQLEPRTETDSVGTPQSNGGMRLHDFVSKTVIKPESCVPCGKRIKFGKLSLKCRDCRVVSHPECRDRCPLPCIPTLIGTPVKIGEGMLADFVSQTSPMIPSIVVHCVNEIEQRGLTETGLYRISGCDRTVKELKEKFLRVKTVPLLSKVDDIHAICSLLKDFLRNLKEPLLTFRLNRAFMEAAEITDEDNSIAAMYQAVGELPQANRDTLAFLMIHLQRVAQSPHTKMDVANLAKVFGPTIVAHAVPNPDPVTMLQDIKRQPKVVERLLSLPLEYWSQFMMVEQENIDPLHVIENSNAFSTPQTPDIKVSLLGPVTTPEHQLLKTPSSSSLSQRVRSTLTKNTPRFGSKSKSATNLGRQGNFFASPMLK

[15] = inhibitors of firefly luciferase expression or activity, dose response, H4 neuroglioma cells, luminescence (AID 1990); format: functional, cell-based
[16] = Luminescence Cell-Based Dose Response HTS to Identify Inhibitors of 5'UTR Stem-Loop Driven Prion Protein mRNA Translation in H4 Neuroglioblastoma Cells. [Related pubchem assays: 1827 (Project Summary), 1813 (Primary HTS)]; format: functional
[17] = inhibitors of SNCA 5'UTR-driven reporter translation, confirmation, H4 neuroglioma cells, luminescence (AID 1988); format: functional, cell-based
[18] = HEK293T cytotoxicity, dose response, cytotoxicity control for miR-122 modulator project, cell-based, inhibitor set, cherry-pick, set 2 (AID 720697); format: functional
cells [19] = format: functional, cell-based
cells [20] = format: functional, cell-based; remark: listed apart in the source
[21] = molecular target: T6, Heat shock factor protein 1 (Mus musculus, UniProt P38532); test: HSF1 potentiators in luciferase reporter cells, confirmation, cell-based, NIH3T3, luminescence, dose retest (AID 435004); format: functional;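 note: stress induced by proteasome inhibitor MG132 added 30 min after compound; luciferase reporter driven by HSF1 response element in NIH3T3 cells; actives raise luminescence as potentiators of the MG132 stress response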
T6 sequence (P38532 whole entry): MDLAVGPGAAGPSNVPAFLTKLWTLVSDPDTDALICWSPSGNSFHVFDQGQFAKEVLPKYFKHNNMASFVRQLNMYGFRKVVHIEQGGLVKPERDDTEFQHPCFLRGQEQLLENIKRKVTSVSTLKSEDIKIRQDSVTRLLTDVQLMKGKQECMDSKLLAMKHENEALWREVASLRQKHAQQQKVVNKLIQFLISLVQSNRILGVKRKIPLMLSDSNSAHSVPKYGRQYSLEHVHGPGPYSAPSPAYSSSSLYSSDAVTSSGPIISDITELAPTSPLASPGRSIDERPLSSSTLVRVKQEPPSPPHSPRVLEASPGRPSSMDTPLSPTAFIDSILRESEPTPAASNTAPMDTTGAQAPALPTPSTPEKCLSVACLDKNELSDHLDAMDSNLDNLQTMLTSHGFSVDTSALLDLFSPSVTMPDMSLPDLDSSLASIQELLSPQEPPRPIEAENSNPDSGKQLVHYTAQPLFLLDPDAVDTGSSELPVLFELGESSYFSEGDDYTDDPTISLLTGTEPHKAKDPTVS

[22] = A2780 ovarian cancer cell cytotoxicity, dose response, cytotoxicity control, plate reader, dry powder samples (AID 743046); format: functional, cell-based

With `OCCN1CCN(c2ncnc3sc(-c4ccccc4)cc23)CC1` the EC50 [1] was 0.721 µM (active), the EC50 [2] was > 60 µM (not active) and the AC50 [3] was 24.8 µM (active).

For `CCOc1ccc(NC(=O)CSc2nccn(-c3ccc4c(c3)OCCO4)c2=O)cc1`, the IC50 [4] was 2.49 µM (active), the IC50 (Steroidogenic factor 1) was 2.46 µM (active) and the IC50 [5] was 35.9 µM (inactive).

With `CCN1CCN(c2nc(Nc3ccc(NC(C)=O)cc3)nc(Nc3ccc(NC(C)=O)cc3)n2)CC1` the AC50 [6] was 6.27 µM (active).

With `C[C@@H]1CN([C@H](C)CO)C(=O)c2cc(-c3cncnc3)cnc2O[C@H]1CN(C)Cc1ccc(Oc2ccccc2)cc1` the AC50 [7] was 25.7 µM (active).

For `C[n+]1c2n(c3ccccc31)N=C(c1cc(C(C)(C)C)c(O)c(C(C)(C)C)c1)CS2`, the EC50 [1] was 0.496 µM (active), the EC50 [2] was > 60 µM (not active) and the AC50 (CAAX prenyl protease 2 [8]) was 9.21 µM (active). The AC50 (INS1) was 0.452 µM (active), the AC50 (CAAX prenyl protease 2 [9]) was > 100 µM (inactive) and the AC50 [10] was 5.92 µM (active). For the same molecule, the AC50 [11] was 13 µM (active), the AC50 [12] was 7.16 µM (active) and the AC50 [6] was 13.4 µM (active). For the same molecule, the AC50 (Paired box protein Pax-8) was 0.906 µM (active).

With `CC(C)N(CCNCC(O)COc1ccc(C(C)(C)c2ccccc2)cc1)C(C)C` (configuration not stated) the CC50 [13] was 91.8 µM (active) and the IC50 [14] was 204 µM (active).

For `COc1ccc(C(O)(CC(C)C)C(CN2CCOCC2)c2ccccc2)cc1` (configuration not stated), the EC50 [15] was 10.6 µM (active), the EC50 [16] was > 120 µM (not active) and the EC50 [17] was 10.2 µM (active). The AC50 [7] was 49 µM (active) and the AC50 [18] was 4.58 µM (active).

For `O=C1CCCN2N=C(SCC(=O)Nc3ccc(Br)cc3)SC2=N1`, the EC50 (cells [19]) was > 350 µM (not active), the EC50 (cells [20]) was > 350 µM (not active) and the EC50 [21] was > 260 µM (inactive). For the same molecule, the IC50 [4] was 71.6 µM (inactive), the IC50 (Steroidogenic factor 1) was 12 µM (inactive) and the IC50 [5] was 35.9 µM (inactive).

With `Cn1cc(Cl)c(C(=O)OCC(=O)Nc2ccc(S(N)(=O)=O)cc2)n1` the IC50 [4] was 0.45 µM (active), the IC50 (Steroidogenic factor 1) was 1.11 µM (active) and the IC50 [5] was 35.9 µM (inactive).

In the case of `COc1ccc(OCC(O)CN2CCC(CN3C(=O)c4cccc5cccc(c45)C3=O)CC2)cc1` (configuration not stated), the AC50 [6] is reported as 8.15 µM (active).

With `Cc1cc(-c2ccccc2)nc(N/N=C/c2ccc(O)cc2)n1` the CC50 [13] was 87 µM (active) and the IC50 [14] was 18.2 µM (active).

For `CCN(CC)CC(=O)Nc1cc(N(C)C)nc2ccccc12`, the AC50 [3] was 26.9 µM (active).

In the case of `Cc1ccc2c(c1)c1nc3ccccc3nc1n2CCN1CCOCC1`, the AC50 [3] is reported as 16.6 µM (active).

With `CCn1c(=O)n(CC)c2cc(N3CCCC3)c(NC(=O)c3cccc(Cl)c3)cc21` the CC50 [13] was 100 µM (active).

With `Cc1noc(C)c1S(=O)(=O)Nc1ccc2c(c1)C(=O)N([C@@H](C)CO)C[C@H](C)[C@H](CN(C)C(=O)Nc1ccc(C(F)(F)F)cc1)OCCCC[C@H](C)O2` the AC50 (Paired box protein Pax-8) was 14.2 µM (active) and the AC50 [22] was 4.83 µM (active).
